# Measured values: ChEMBL document CHEMBL1649425, “A-CD estrogens. I. Substituent effects, hormone potency, and receptor subtype selectivity in a new family of flexible estrogenic compounds” (J Med Chem, 2011)
# Experiments:
# Homo sapiens [1] = species: Homo sapiens; assay: Selectivity ratio of relative binding affinity for human ERbeta to relative binding affinity for human ERalpha
# [2] = Hepatotoxicity in Sprague-Dawley rat hepatocyte after 2 hrs; assay type: toxicity, cell-based; details: hepatocytes, read-out: LC50
# Homo sapiens [3] = species: Homo sapiens; assay: Selectivity ratio of relative transcription activation for human ERbeta to relative transcription activation for human ERalpha
# [4] = target: T1, Estrogen receptor (Homo sapiens) (UniProt P03372); assay: Activity at human ERalpha expressed in HEK293 cells assessed as relative transcription activation by estrogen response element-lucifease assay relative to estradiol; assay type: cell-based; set-up: concentration or dose not given beside the values
# T1 sequence (whole entry): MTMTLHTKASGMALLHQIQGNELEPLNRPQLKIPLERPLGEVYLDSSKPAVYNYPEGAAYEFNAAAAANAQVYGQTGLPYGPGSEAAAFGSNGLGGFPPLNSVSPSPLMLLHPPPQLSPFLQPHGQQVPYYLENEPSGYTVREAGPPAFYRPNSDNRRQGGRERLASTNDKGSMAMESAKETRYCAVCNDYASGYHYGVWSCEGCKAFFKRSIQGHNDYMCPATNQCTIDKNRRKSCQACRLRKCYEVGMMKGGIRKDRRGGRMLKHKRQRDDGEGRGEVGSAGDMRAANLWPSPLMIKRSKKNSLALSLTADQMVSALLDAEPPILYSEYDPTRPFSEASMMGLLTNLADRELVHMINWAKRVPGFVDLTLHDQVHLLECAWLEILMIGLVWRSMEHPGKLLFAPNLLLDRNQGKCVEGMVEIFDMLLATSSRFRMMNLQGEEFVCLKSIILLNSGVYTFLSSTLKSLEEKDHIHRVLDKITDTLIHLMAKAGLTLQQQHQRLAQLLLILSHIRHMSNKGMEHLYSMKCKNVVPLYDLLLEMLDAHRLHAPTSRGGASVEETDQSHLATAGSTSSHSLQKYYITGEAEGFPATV
# [5] = target: Estrogen receptor beta (Homo sapiens) (UniProt Q92731); assay: Activity at human ERbeta expressed in HEK293 cells assessed as relative transcription activation by estrogen response element-lucifease assay relative to estradiol; assay type: cell-based; set-up: concentration or dose not given beside the values
# Sequence of Estrogen receptor beta (Homo sapiens) (Q92731 whole entry): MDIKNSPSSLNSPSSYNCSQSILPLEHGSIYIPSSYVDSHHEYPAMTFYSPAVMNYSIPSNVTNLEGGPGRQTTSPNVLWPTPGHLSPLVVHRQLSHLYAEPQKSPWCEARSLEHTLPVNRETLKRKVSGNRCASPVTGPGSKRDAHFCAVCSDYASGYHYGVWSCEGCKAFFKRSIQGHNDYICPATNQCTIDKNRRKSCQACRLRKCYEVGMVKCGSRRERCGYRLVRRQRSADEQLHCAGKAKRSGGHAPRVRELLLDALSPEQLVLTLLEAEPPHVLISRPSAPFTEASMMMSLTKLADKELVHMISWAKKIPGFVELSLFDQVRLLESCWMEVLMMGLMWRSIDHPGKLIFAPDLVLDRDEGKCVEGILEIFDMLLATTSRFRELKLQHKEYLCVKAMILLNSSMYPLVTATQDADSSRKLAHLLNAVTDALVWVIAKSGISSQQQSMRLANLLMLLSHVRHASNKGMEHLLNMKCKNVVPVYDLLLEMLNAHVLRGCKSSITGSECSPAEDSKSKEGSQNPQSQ
SMILES,Ratio (Homo sapiens [1]),CC50 at 2 h [2] [µM],Ratio (Homo sapiens [3]),Activity [4] [%],Activity [5] [%]
Cc1c(O)ccc([C@H]2CC[C@@]3(C)[C@H](CC[C@@H]3O)C2)c1F,1,,,,
C[C@]12CC[C@H](c3ccc(O)cc3F)C[C@H]1CC[C@@H]2O,5,250,3.6,44.3,158
C[C@]12CC[C@H](c3ccc(O)c(F)c3F)C[C@H]1CC[C@@H]2O,9.3,155,8.3,18.3,151
C[C@]12CC[C@@H](c3ccc(O)cc3)C[C@H]1CC[C@@H]2O,,300,,,
C[C@]12CCC(c3ccc(O)cc3Cl)=C[C@H]1CC[C@@H]2O,1.7,,1.3,98.6,127
C[C@]12CC[C@H](c3ccc(O)cc3)C[C@H]1CCC2=O,14,,,,
C[C@]12CC[C@H](c3cc(F)c(O)cc3F)C[C@H]1CC[C@@H]2O,8.7,,,,
C[C@]12CC[C@H](c3ccc(O)c(F)c3)C[C@H]1CC[C@@H]2O,8.3,,,-9,196
C#C[C@]1(O)CC[C@@H]2C[C@@H](c3ccc(O)cc3)CC[C@@]21C,1.3,,,-16.9,35.9
C[C@]12CC=C(c3ccc(O)cc3Cl)C[C@H]1CC[C@@H]2O,2.3,,1,115,117
Cc1cc(O)ccc1[C@H]1CC[C@@]2(C)[C@H](CC[C@@H]2O)C1,11.9,,,-9.7,49.2
C[C@]12CC[C@H](c3cc(F)c(O)c(F)c3)C[C@H]1CC[C@@H]2O,6.9,,,,
C[C@]12CC[C@H](c3ccc(O)cc3Cl)C[C@H]1CC[C@@H]2O,,,,90,189
C[C@]12CC[C@@H]3c4ccc(O)cc4CC[C@H]3[C@@H]1CC[C@@H]2O [ESTRADIOL],,400,,,
C[C@]12CC[C@H](c3cc(Cl)c(O)c(Cl)c3)C[C@H]1CC[C@@H]2O,0.5,,,0,0
Cc1c(O)ccc([C@H]2CC[C@@]3(C)[C@H](CC[C@@H]3O)C2)c1C,2.8,,,,
C[C@]12CC[C@H](c3ccc(O)cc3)C[C@H]1CC[C@@H]2O,14.6,320,39,4.2,164
C[C@]12CC[C@H](c3cc(F)c(O)c(F)c3F)C[C@H]1CC[C@@H]2O,9.3,> 600,7.9,12.8,95.4
